In publication PMC4514850, “A Novel TGR5 Activator WB403 Promotes GLP-1 Secretion and Preserves Pancreatic β-Cells in Type 2 Diabetic Mice” (PLoS ONE, 2015):
Entries after “also recorded” stand apart in the source; their conditions may differ.

Experiments:
db/db mice = assay: 4-week treatment of db/db mice; format: in vivo
Description: Five-week old male ICR mice and db/db (C57BL BKS cg-M+/+ lepr-/-) mice were purchased from Shanghai SLAC Laboratory Animal Co., Ltd. (Shanghai, China). Mice were housed 4–5 per cage and allowed access to normal chow diet and autoclaved water freely. They were fed at a constant room temperature (25°C) with a 12-h light (7:00 AM)/dark (7:00 PM) cycle. All the mice were monitored at least daily, and no adverse events were observed. In general, the db/db mice show a high food intake at 4-week old and become obese and develop type 2 diabetes at 8-week age. Postprandial 2 h blood glucose was assessed and mice with the similar degree of hyperglycemia and body weight were randomized into different groups in order to get a similar average PBG in each group.
(§1) Diabetic mice in group of four were treated by gavage with vehicle (0.5% carboxymethylcellulose, CMC, Sigma), WB403 50, 100 mg/kg or sitagliptin at 100 mg/kg daily for 4 weeks in db/db mice (n = 5 with chow diet), and 8 weeks in HFD/STZ mice (n = 8 with HFD, additional normal mice group with chow diet). During the entire dosing period, body weight, food intake and water intake were monitored three times per week, while FBG and PBG were measured weekly. Overnight fasted mice received an oral glucose challenge at 2 g/kg and postprandial 2 h blood glucose was measured. Animals were treated and assessed in the order of the vehicle, WB403 50, 100 mg/kg and sitagliptin 100 mg/kg group.
Fig 3 Effects of WB403 treatment in db/db mice. (A, B) FBG and PBG measured every week during the 4-week treatment period. (C, D) Serum levels of HbA1c, measured at the end of intervention by Adicon Clinical Laboratories (Shanghai, China) using an immunoturbidimetric assay on Beckman AU680 biochemical analyzer. (E) Average daily food intake per mouse during the treatment period. Data was collected three times per week. (F) Average daily water intake per mouse. (G) Body weight from different groups of mice. (H) Serum levels of insulin were measured at the end of intervention. Values are mean ± SEM (n = 5). *p<0.05, **p<0.01, ***p<0.001 vs. vehicle group.

HFD/STZ mice = assay: 8-week treatment of HFD/STZ mice; format: in vivo
Description: For generation of nongenetic mice model of type 2 diabetes, ICR mice were fed with high fat diet (HFD, with 60% fat, Research Diets) for three weeks, then fasted for 5 h before receiving a single dose of streptozotocin (STZ, Sigma) intraperitoneally (ip) at 80 mg/kg to induce partial insulin deficiency. […] Diabetes was assessed using conventional criteria. Mice with similar degree of hyperglycemia and body weight were randomized into various groups in order to get a similar average PBG in each group.
as §1
Fig 4 WB403 improved hyperglycemia of HFD/STZ mice. Mice were treated with different concentration of WB403, vehicle or sitagliptin. FBG (A) and PBG (B) were measured every week during the 8-week treatment period. (C, D) HbA1c levels in serum. Values are mean ± SEM (n = 8). *p<0.05, **p<0.01, ***p<0.001 vs. vehicle group.

hGPR119 = target: T1, hGPR119 (Homo sapiens, UniProt Q8TDV5); assay: GPR119-dependent cAMP accumulation in transfected 293T cells; format: cell-based; conditions: 10, 20 μmol/l
T1 construct: host or cells: 293T cells, transient transfection with pGPR119
T1 sequence (Q8TDV5 1-335): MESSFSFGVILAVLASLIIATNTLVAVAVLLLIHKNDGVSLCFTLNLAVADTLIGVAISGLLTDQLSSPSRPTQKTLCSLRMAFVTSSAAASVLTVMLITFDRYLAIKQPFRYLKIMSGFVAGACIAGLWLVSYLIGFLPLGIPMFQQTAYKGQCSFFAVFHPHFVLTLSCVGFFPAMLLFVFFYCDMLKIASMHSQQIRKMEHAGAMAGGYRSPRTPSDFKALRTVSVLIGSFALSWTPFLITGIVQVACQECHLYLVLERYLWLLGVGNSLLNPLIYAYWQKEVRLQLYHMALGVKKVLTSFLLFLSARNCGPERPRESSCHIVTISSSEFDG
Description: For human TGR5 luciferase (luc) assay, 293T cells were co-transfected with pCRE-luc, pTGR5 (kind gift from Prof. Johan Auwerx, Ecole Polytechnique Fédérale de Lausanne, Lausanne, Switzerland) and pRenilla (Promega, USA). WB403 was added 5 h later. Cells were harvested after 16 h and subjected to luciferase analysis on Lumistar Optima chemiluminescent detector (BMG labtech, Germany). For cAMP testing, 293T cells transiently transfected with pTGR5 or pGPR119 (GeneCopoeia, USA) were washed by FBS-free DMEM, and stimulated with WB403 in FBS-free DMEM containing 3-isobutyl-1-methyl-xanthine (IBMX, Sigma). Cell lysates were collected 30 min later and used for cAMP ELISA assay. FLIPR Calcium 5 assay kit (Molecular Devices, USA) was used for calcium mobilization assay. 293-GPR40 stable cells (kindly provided by Prof. Naiming Zhou of Zhejiang University, Hanzhou, China) or 293 cells transient transfected with GPR120 were seeded at 50,000 cells per well in black-walled clear-bottomed 96-well plates (Costar). […] Increase of the intracellular Ca^2+ concentration was monitored by Flexstation 3 system (Molecular Devices, USA).
The GLP-1 (active) ELISA kit was purchased from Millipore, and insulin ELISA kit was from Mercodia. For quantitative determination of cAMP, a competitive enzyme immunoassay kit from R&D system was used. […]

ICR mice = assay: 7-day acute toxicity test in ICR mice; conditions: 6000 mg/kg group after 7-day acute toxicity test
[1] = db/db mice, 50, 100 mg/kg daily by gavage, after one week
[2] = db/db mice, end of 4-week treatment
[3] = HFD/STZ mice, 50, 100 mg/kg daily, from first week through 8-week treatment

With `CCc1cc(-c2nc(C)c(COCc3ccc(Br)cc3)s2)ccn1` [WB403, 4-(5-((4-bromobenzyloxy)-methyl)-4-methylthiazol-2-yl)-2-ethylpyridine] the body weight (db/db mice; db/db mice, 4-week treatment) was “did not vary significantly”, the food intake (db/db mice; db/db mice, 4-week treatment) was “did not vary significantly” and the water intake (db/db mice; db/db mice, 4-week treatment) was “decreased”. For the same compound, the FBG vs vehicle (db/db mice; [1]) was “significantly decreased”, the PBG vs vehicle (db/db mice; [1]) was “significantly decreased” and the “HbA1c levels vs vehicle” value (db/db mice; [2]) was “significantly lower”. The serum insulin levels (db/db mice; [2]) was “higher insulin levels”, the “serum HbA1c levels vs vehicle” value (HFD/STZ mice; HFD/STZ mice, 8-week treatment) was “decreased significantly” and the FBG vs vehicle (HFD/STZ mice; [3]) was “significantly decreased”. For the same compound, the PBG vs vehicle (HFD/STZ mice; [3]) was “significantly decreased”, the “hGPR119 dependent cAMP accumulation” value (hGPR119) was “did not show significant stimulation activity; also recorded: no significant stimulation effect” and the “signs of toxicity in tissue sections (H&E)” value (ICR mice) was “did not show obvious signs of toxicity”.
